Results on two compounds are retold here after patent EP3167873A1, “AQUEOUS SOLUTION OF CONDENSATION PRODUCTS OF TAURINAMIDE AND METHYLENE GLYCOL FOR USE AS ANTI-INFECTIVE AGENT IN THE IMPLANTATION OF DEVICES IN CARDIAC SURGERY” (Weis, Christian Edwin, priority 2015, dated 2017).

Data set [1] has as its system Infektionen. The data set can be described thus: Clinical use in pacemaker/ICD implantation: device treated and pocket rinsed, infections observed after implantation. It counts as in vivo, Patienten. From the text:
Bei der Verwendung wird üblicherweise so vorgegangen, dass die implantierbare Vorrichtung vor der Implantation für die zur Erzielung der gewünschten optimalen antimikrobiellen Wirkung und zur vollständigen Benetzung aller Oberflächen der Vorrichtung erforderliche Zeit, gemäß einer bevorzugten Praxis etwa 20 Minuten, in die Lösung eingelegt wird und danach die implantierbare Vorrichtung, z.B. das Gehäuse eines Herzschrittmachers, mit einem Film der wässrigen Lösung auf ihrer Oberfläche in die vom operierenden Chirurgen vorbereitete Tasche implantiert wird.
Die Tasche wird anschließend mit der restlichen Lösung (ca. 100 ml) gespült.
In einer kardiologischen Station eines akademischen Lehrkrankenhauses, in der routinemäßig und in großer Zahl Patienten Herzschrittmacher implantiert werden, gehörte es zur Praxis, zur Infektionsvermeidung die zu implantierenden Herzschrittmachergehäuse während der Implantation mit einer Lösung von Wasserstoffperoxid zu behandeln, wobei gleichzeitig eine Wundspülung mit Wasserstoffperoxid stattfindet. Dabei kommt es zur Freisetzung von Sauerstoff und starkem Aufschäumen. Trotz der bakteriziden Eigenschaften von verdünntem Wasserstoffperoxid ist die Wirkung der Behandlung als Infektionsprophylaxe bei der Implantation von Geräten nicht verifiziert. […]

Details of data set [2]: species or system Patienten. The conditions noted are these: in vivo. The source says: Schrittmacherimplantationen unter erfindungsgemäßer Verwendung einer 2,0 Gew.-%igen wässrigen Taurolidinlösung sind in der nachfolgenden Tabelle 1 tabellarisch erfasst. Die Tabelle gibt dabei die Befunde für 45 Implantationen, einschließlich von 9 Fällen des Austauschs eines Aggregats gegen ein neues, wieder, die im Zeitraum zwischen Februar und September 2015 erfolgten, wobei in allen Fällen die angegebene 2,0 Gew.-%ige wässrige Taurolidinlösung wie beschrieben zur Anwendung kam.

A further data set has as its system Bakterien. The conditions noted are these: contact of the solution with microorganisms / contaminated surfaces; cited from earlier work.
In the next data set the test system is Biofilme. Particulars: cited from earlier work.
For data set [3], the system named is MRSA (Methicillin-resistenter Staphylococcus aureus). Particulars: cited from earlier work.
The subject of data set [4] is VRE (Vancomycin-resistente Enterokokken). Particulars: cited from earlier work.
The test system of a further data set is ESKAPE Pathogene. Particulars: cited from earlier work.
Data set [5] has as its system Infektionen. Particulars: irrigation (wound rinsing); cited from earlier work.

On to `O=S1(=O)CCN(CN2CCS(=O)(=O)NC2)CN1` [Taurolidin], for which the Infektion entry in the data set with Infektionen [1] (45 implantations of Tabelle 1 (February to September 2015), 2,0 Gew.-% aqueous Taurolidin solution, observed up to filing date) was “bei keinem einzigen der Patienten eine Infektion beobachtet”. The Infektionen result in the data set on Infektionen [1] (pacemaker laid about 20 min in 2,0 Gew.-% Taurolidin solution before implantation, pocket rinsed with rest (ca. 100 ml), comparable number of implantations) is “keinerlei Infektionen beobachtet”. Besides, the Wundheilung result in data set [2] was “gute, ungestörte Wundheilung”. In addition, the “Kontaktdauer bis zur vollen antibakteriellen Wirkung” value in the data set with Bakterien is recorded as no less than 10 Minuten. Moreover, in the data set with Biofilme, the “Wirksamkeit gegen Biofilme” value is “wirksam”. Further, the Wirksamkeit result (in data set [3]; in data set [4]; in the data set on ESKAPE Pathogene) was “voll wirksam” throughout.
Consider Povidon-Iod, for which the “Verbesserung der Infektionsrate” value with Infektionen [5] is given as “keine nennenswerte Verbesserung beobachtet”.
